The assay is described as follows: Cytotoxicity against human CHP100 cells after 24 hrs by MTT assay. Type of assay: functional, cell-based. The following applies: CHP100, 24 h.

Each structure is given as a SMILES string.

What is called IC50 is the concentration that inhibits the measured activity by half. Lower therefore signals greater potency. Molecule `O=C1C=CC2(Oc3cccc4cccc(c34)O2)c2cccc(O)c21` registered an IC50 of 1.6 µM. In the case of `O=C1C=C[C@H]2O[C@H]3CC(=O)[C@@H]1[C@@H]2C31Oc2cccc3cccc(c23)O1`, the IC50 turned out to be 0.4 µM. The molecule `O=C1C=CC2(Oc3cccc4cccc(c34)O2)[C@H]([C@H]2CCC(=O)O2)C1` returned an IC50 of 1.4 µM.

Values taken from ChEMBL document CHEMBL3739284, “Anteaglonialides A-F and Palmarumycins CE(1)-CE(3) from Anteaglonium sp. FL0768, a Fungal Endophyte of the Spikemoss Selaginella arenicola” (J Nat Prod, 2015).
